Test results as given in publication PMC11421016, “Biotransformation and Epithelial Toxicity of Prenylated Phenolics from Licorice Roots (Glycyrrhiza spp.) in 3D Apical-Out Mucus-Producing Human Enteroids” (Journal of Agricultural and Food Chemistry, 2024).
Where two headings read alike, the source gives them in different places.

How the values were obtained:
[1] = system: human ileal apical-out enteroids; test: Cytotoxicity by LDH leakage assay in apical-out enteroids; format: cell-based
Method: (§1) Cytotoxicity and effects on cell viability after exposure to glab, licoA, and glycy in apical-out and apical-in enteroids (6.25–500 μg mL^–1) and proliferating Caco-2 cells (3.13–100 μg mL^–1) were determined by LDH leakage (Section 2.6.1) and WST-1 assays (Section 2.6.2), respectively. For this, stock solutions of 50 mg mL^–1 of glab, licoA, and glycy in DMSO were used. […] An overview of the experimental conditions for the exposure experiments with glab, licoA, and glycy is shown in Table S2 (Supporting Information). In brief, apical-out and apical-in enteroids were grown for 7–10 days in OGM (∼200 enteroids per dome), after which the medium was changed to ODM (supplemented with 5 μM DAPT) to initiate enteroid differentiation. To generate apical-out enteroids, MG was removed from apical-in enteroids in OGM at day 7–10, as described in Section 2.3, and suspended in supplemented ODM. After 3 days in ODM, the effects on cytotoxicity and cell viability of glab, licoA, and glycy in apical-out and apical-in enteroids (passages between 3 and 17) were assessed after 4 and 24 h of incubation. For apical-out enteroids in a suspension, enteroids were pelleted by centrifugation (2 min, 200g, RT), after which the ODM was removed and 500 μL of the experimental agent was added. […] Caco-2 cells were grown for 48 h after seeding before experiments (passages 14–19) with proliferating cells and for 21 days after seeding (passages 14–33) with differentiated cells.[17] The medium (DMEM supplemented with FCS) was changed every 2 days. For exposure experiments, Caco-2 cells were incubated with glab, licoA, and glycy in DMEM without FCS, as FCS serves as an exogenous source of LDH.[22]
(§2) Cytotoxic effects of glab, licoA, and glycy were assessed by measuring leakage of intracellular lactate dehydrogenase (LDH) in the supernatant and analyzed using an LDH cytotoxicity detection kit (Roche Applied Science, Almere, The Netherlands), according to the manufacturer’s instructions. The LDH activity in the supernatant was expressed as the percentage of the maximum releasable LDH in enteroids or Caco-2 cells (enteroids or Caco-2 cells treated with 1% (v/v) Triton X-100) and calculated with eq 1. [drawing 1] 1 in which exp. value is the UV absorbance at 492 nm (Tecan Spark or Tecan Infinite 200 Pro, Tecan Group Ltd., Zürich, Switzerland), background control is the medium with corresponding concentration of glab, licoA, or glycy, and high control is the maximum releasable LDH in enteroids or Caco-2 cells. For enteroids, each well was used as its own positive control by taking the total releasable LDH of each well after incubation.

[2] = Cell viability by WST-1 assay in apical-out enteroids; format: cell-based, human; settings: human, apical-out ileal enteroids; 500 μg mL^–1, 4 h exposure, negative control set at 100%; read-out: cell viability (WST-1)
Method: as §1
(§3) Effects on cell viability after stimulation by glab, licoA, and glycy were assessed by measuring cleavage of the tetrazolium salt WST-1 to formazan catalyzed by cellular mitochondrial dehydrogenases and analyzed using a WST-1 cell viability kit (PromoKine, Heidelberg, Germany), according to the manufacturer’s instructions. Cell viability was expressed as the percentage of the control cells (enteroids or Caco-2 cells grown in a medium) and was calculated with eq 2. [drawing 2] 2 in which exp. value is the UV absorbance at 450 nm (Tecan Spark or Tecan Infinite 200 Pro) and low control is the spontaneous cleavage of WST-1 to formazan by mitochondrial dehydrogenases in untreated enteroids or Caco-2 cells.

[3] = system: human ileal apical-out enteroids; test: as above; format: cell-based; settings: 4 h exposure, range 6.25 up to 500 μg mL^–1
Method: as §1, §3

[4] = system: human ileal apical-in enteroids; test: Cytotoxicity by LDH leakage assay in apical-in enteroids; format: cell-based; settings: 4 h, cutoff 25% vs negative control
Method: as §1, §2

Caco-2 cells = test: Cytotoxicity by LDH leakage assay in Caco-2 cells; format: cell-based, human; settings: proliferating and differentiated Caco-2 cells (differentiated: ref 17), cutoff 25%
Method: The human colon adenocarcinoma cell line (Caco-2) was obtained from the American Type Culture Collection (ATCC; Manassas, VA, USA). Caco-2 cells were cultured in DMEM, in a humidified atmosphere of 5% CO2 at 37 °C until 80–90% confluency was reached. Effects on the cytotoxicity and cell viability (Section 2.6) were assessed in proliferating and differentiated Caco-2 cells. The effects on differentiated Caco-2 cells were recently described in our publication.[17] Proliferating and differentiated Caco-2 cells were seeded into 96-well plates at a density of 15,000 cells per cm^2.
Cytotoxicity and effects on cell viability after exposure to glab, licoA, and glycy in apical-out and apical-in enteroids (6.25–500 μg mL^–1) and proliferating Caco-2 cells (3.13–100 μg mL^–1) were determined by LDH leakage (Section 2.6.1) and WST-1 assays (Section 2.6.2), respectively. For this, stock solutions of 50 mg mL^–1 of glab, licoA, and glycy in DMSO were used. […] After 3 days in ODM, the effects on cytotoxicity and cell viability of glab, licoA, and glycy in apical-out and apical-in enteroids (passages between 3 and 17) were assessed after 4 and 24 h of incubation. […]
as §2, with “[drawing 1]” left out, “For enteroids, each well was used as its own positive control by taking the total releasable LDH of each well after incubation.” left out

[5] = system: human ileal apical-out enteroids; settings: 12.5 μg mL^–1 (34–39 μM), 4 h exposure
Method: Effects on barrier integrity of apical-out enteroids after glab, licoA, and glycy exposure were evaluated with a dextran diffusion assay, adapted from Co et al.[14] […] Enteroids were allowed to settle by gravity (5 min) into a pellet, the FITC-dextran 4 kDa was aspirated, and enteroids were washed with DMEM/F12 (3 min, 250g, RT). Enteroids were suspended in fresh DMEM/F12, and they were imaged with an EVOS FL Auto 2 cell imaging system. Images were analyzed using ImageJ software (version 1.52).

[6] = system: human apical-out ileal enteroids; test: Biotransformation in apical-out ileal enteroids (RP-UHPLC-PDA-MSn); format: in vitro ADME; settings: for glucuronide concentration released at the apical side: glycy 265 μM at t = 0 h
Method: (§4) Biotransformation of glab, licoA, and glycy in apical-out and apical-in enteroids was evaluated after 0, 4, and 24 h of incubation. For this, apical-out enteroids were stimulated with 50 μg mL^–1 (154 μM) glab, or with 100 μg mL^–1 licoA (296 μM), or 100 μg mL^–1 glycy (272 μM), and apical-in enteroids were stimulated with 50 μg mL^–1 glab (154 μM), 50 μg mL^–1 licoA (148 μM), or 50 μg mL^–1 glycy (136 μM). […] For apical-out enteroids, parent compounds and their transformation products were assessed on the enteroids’ apical (facing the medium) and basolateral side (inside the enteroids) and intracellularly. In apical-in enteroids, parent compounds and metabolites were assessed on the basolateral side (facing the medium). For the apical release, apical-out enteroids were pelleted (250g, 3 min, 4 °C), and the supernatant was used for LC-MS analysis, after which the enteroids were washed with PBS. Enteroids in a suspension in fresh PBS were broken up by vigorously pipetting up and down approximately for 20 times, after which enteroids were pelleted and the supernatant was used to determine basolateral release by using LC-MS. Enteroids were washed with PBS, and the enteroids’ cells in fresh PBS were disrupted on ice with a digital sonifier (Branson Ultrasonics Corporation, Danbury, CT, USA) with the following settings: a 5 s pulse, a 10 s pause, an amplitude of 55%, and 12 cycles. Enteroids were pelleted, and the supernatant was used as a measure for intracellular release and measured with LC-MS.
(§5) Samples were separated on a Thermo Vanquish UHPLC system (Thermo Scientific, San Jose, CA, USA) equipped with a pump, a degasser, an autosampler, and a PDA detector, as described elsewhere.[15] Eluents used were (A) LC-MS-grade MQ + 0.1% FA (v/v) and (B) LC-MS-grade ACN + 0.1% FA (v/v). The elution program was started by running isocratically at 1% B for 1.09 min followed by a 1.09–26.16 min linear gradient to 70% B, a 26.16–27.25 min linear gradient to 100% B, and 27.25–32.70 min isocratically at 100% B. The eluent was adjusted to start conditions in 1.09 min followed by equilibration of 5.45 min.
(§6) Mass spectrometric data were acquired using an LTQ Velos Pro linear ion trap mass spectrometer (Thermo Scientific), equipped with a heated ESI probe coupled in-line to the Vanquish UHPLC system, as described elsewhere.[15] Data were processed using Xcalibur 4.1 (Thermo Scientific).
(§7) Quantification of glab, licoA, glycy, and produced metabolites was based on UV absorbance at 280 nm (glab), 340–390 nm (licoA), and 320–370 nm (glycy). For this, a seven-point calibration (0.01–150 μg mL^–1) curve based on external standards of glab, licoA, and glycy (R^2 > 0.999) was used. UV peaks were integrated using the AVALON integration algorithm with the autocalc function (Xcalibur 4.1). Metabolites were quantified as glab, licoA, or glycy equivalents.

[7] = system: human apical-in ileal enteroids; test: Biotransformation in apical-in ileal enteroids (RP-UHPLC-PDA-MSn); format: in vitro ADME
Method: as §4, §5, §6, §7

[8] = Stability in the medium without enteroids; format: physicochemical; settings: after 24 h of incubation
Method: as §7

Gram-positive bacteria = system: Gram-positive bacteria; parameters: method as in PMID 36377761; settings: against Gram-positive bacteria, cited from earlier work
[9] = system: human CYP enzymes (i.e., CYP3A4); parameters: method as in PMID 17220245, PMID 28774812, PMID 12019199, PMID 26100226; settings: cited from earlier work

Molecule | cytotoxicity (LDH) ([1]; 500 μg mL^–1, 4 h exposure, % of maximum releasable LDH) | effects on cytotoxicity up to the highest concentrations ([1]; 4 h exposure, up to 500 μg mL^–1, p > 0.05) | viability at 4 h, 500 μg mL^–1 [2] | cell viability (WST-1), slight decrease, not statistically significant [3] | highest nontoxic concentration (LDH) [4] | highest nontoxic concentration (LDH) (Caco-2 cells) | epithelial barrier (membrane) integrity [5] | % biotransformation to glucuronide compared to parent at t = 0 h ([6]; 24 h exposure, 100 μg mL^–1 (licoA, glycy), apical side) | sulfation (LC-MS analysis) ([6]; human ileal apical-out and apical-in enteroids) | biotransformation products formed ([6]; released on the apical side) | phase I biotransformation products ([6]; up to 24 h incubation) | % biotransformation to glucuronide compared to parent at t = 0 h ([7]; 24 h exposure, 50 μg mL^–1, basolateral side) | biotransformation products formed ([7]; identified at the basolateral side) | phase I metabolites ([7]; up to 24 h incubation) | recovery in the medium (without enteroids) [8] | minimum inhibitory concentration (MIC) (Gram-positive bacteria) | minimum inhibitory concentration (MIC) (Gram-positive bacteria; equivalent of 12.5 μg mL^–1) | inhibition of human CYP enzymes (i.e., CYP3A4) [9] | glucuronide concentration released at the apical side ([6]; after 4 h) | glucuronide concentration released at the apical side ([6]; after 24 h)
C=CC(C)(C)c1cc(/C=C/C(=O)c2ccc(O)cc2)c(OC)cc1O [licochalcone A] | −6 ± 2% | No significant effects on cytotoxicity | 77 ± 22% | approximately 80% | around 300 μM | around 75 μM | did not seem to disrupt | comparably low | did not reveal sulfation | glucuronide metabolites | No phase I biotransformation products | comparably low | transformed to their glucuronides | no phase I metabolites were identified | 101 ± 3.2% | 12.5 μg mL^–1 | 37 µM | inhibition |  | 
glycycoumarin-glucuronide [glycy-glucuronide] |  |  |  |  |  |  |  |  |  |  |  |  |  |  |  |  |  |  | ~3 µM | ~16 µM
